Laboratory results from ChEMBL document CHEMBL3988442, “University of Dundee, Small-Polar-MMV Screening Library” (2021).

Experiments:
[1] = microbe, parasite or virus in culture; details: Mycobacterium tuberculosis, 72 h, read-out: pIC50 (converted)
[2] = microbe, parasite or virus in culture; details: Mycobacterium tuberculosis, 96 h, read-out: pIC50 (converted)

| SMILES | IC50 [1] [µM] | IC50 [2] [µM] |
| --- | --- | --- |
| O=c1c2ccccc2nc2n1C(CSc1ccc(F)cc1)CN2 (stereo not drawn) | > 50.1 | > 50.1 |
| O=C1CNc2ncnc(N3CCN(c4ccccc4F)CC3)c2N1 | > 50.1 | > 50.1 |
| CCS(=O)(=O)N1CCCCC1c1nc(C(C)C)no1 (stereo not drawn) | > 50.1 | > 50.1 |
| Cc1cc2[nH]c(O)nc2cc1NCc1ccc(F)cc1 | 24.3 | > 50.1 |
| COc1ccc2nnc(C(=O)NCC3CCCC3)nc2c1 | 12.3 | > 50.1 |
| O=C(NCC1CC1)c1nnc2ccc(Cl)cc2n1 | 5.59 | 11.4 |
| Cc1ccc2nnc(C(=O)NCC3CCCC3)nc2c1 | 10.4 | 13.4 |
| NCc1n[nH]c(-c2ccc(Br)cc2)n1 | 24.3 | > 50.1 |
| CC(C)c1ccc(OCn2ccc(C(=O)N3CCCC3)n2)cc1 | 26.5 | 24.5 |
| O=c1c(Cc2ccccc2)c(O)ccn1Cc1cccs1 | > 50.1 | > 50.1 |
| c1ccc(-c2nc(CCNCc3ccncc3)co2)cc1 | > 50.1 | > 50.1 |
| CCCc1nn(Cc2csc(C(C)C)n2)c(=O)o1 | 3.08 | 20.4 |
| Cn1cnc2c1CCN(c1ccnc(-c3ccccc3)n1)C2 | 15.6 | 38.1 |
| Cc1ccc(Cl)c(NC(=O)NC2(C)CCOC2)c1 (stereo not drawn) | > 50.1 | > 50.1 |
| N#Cc1cnc2cc(F)cc(F)c2c1NC1CCN(CC(N)=O)CC1 | > 50.1 | > 50.1 |
| CN(Cc1nnc(C2CC2)o1)Cc1ccccc1-c1ccccc1 | 24.7 | > 50.1 |
| CC(C)c1nnc(CN(C)Cc2ccccc2-c2ccccc2)o1 | 15.8 | 11.8 |
| O=C(Cc1ccc2c(c1)CCCC2)Nc1cccnc1N1CCSCC1 | 12 | 9.97 |
| Cc1cncc(NCc2ccccc2N2CCOCC2)c1 | 6.63 | 6.18 |
| CN(C)S(=O)(=O)c1ccc(F)c(NC(=O)COCC2CC2)c1 | 10.3 | > 50.1 |
| O=C(COCC1CC1)Nc1cc(S(=O)(=O)NC2CC2)ccc1F | 45.8 | > 50.1 |
| CC1CCN(S(=O)(=O)NC(C)Cc2ccco2)CC1 (stereo not drawn) | > 50.1 | > 50.1 |
| Cc1nc(CSCCC(=O)Nc2cccc(N3CCNC3=O)c2)cs1 | > 50.1 | > 50.1 |
| CC(C)Oc1cccc(CN(C)C(=O)Cc2ccon2)c1 | > 50.1 | > 50.1 |
| COC(=O)C(NC(=O)c1ccc(NC2CC2)nc1)c1ccccc1 (stereo not drawn) | > 50.1 | 21.9 |

| SMILES | IC50 [1] [µM] | IC50 [2] [µM] |
| --- | --- | --- |
| CCCNc1nc(CS(=O)(=O)c2ccccc2)cs1 | > 50.1 | > 50.1 |
| COC(=O)C(NC(=O)c1ccc(N(C)C)nc1)c1ccccc1 (stereo not drawn) | 33.2 | 10.2 |
| CCC(=O)Nc1nnc2n(Cc3cccc(OC)c3)[nH]c(C)c1-2 | > 50.1 | > 50.1 |
| O=C(c1cc(C2CCCC2)no1)N1CCCCC1 | 2.4 | 4.9 |
| COc1cccc(C(CO)NC(=O)Cc2ccc(F)c(Br)c2)c1 (stereo not drawn) | > 50.1 | > 50.1 |
| Cc1cccc(-c2ccc(C(=O)N3CCSCC3)c(=O)[nH]2)c1 | 36.1 | > 50.1 |
| COc1ccc(C(=O)NC2COc3ccccc3C2)cc1OCC(=O)O (stereo not drawn) | > 50.1 | 26 |
| Cc1ccccc1CN1CCCN(S(=O)(=O)N(C)C2CCCCC2)CC1 | > 50.1 | > 50.1 |
| CNC(=O)NCCc1csc2ccccc12 | > 50.1 | > 50.1 |
| Cc1nonc1NC(=O)CCn1cc(Br)ccc1=O | > 50.1 | > 50.1 |
| COCCCN(C)c1nc(-c2ccncc2)nc(C)c1C | 11.8 | 6.84 |
| CC(C)Cc1noc(CNc2cc3c(cc2Cl)OCCCO3)n1 | > 50.1 | 27.1 |
| CCc1noc(CNc2cc3c(cc2Cl)OCCCO3)n1 | > 50.1 | > 50.1 |
| Cc1ccc(C2CCCN2Cc2nc(-c3ccco3)no2)cc1 (stereo not drawn) | 21.8 | 18.7 |
| N#CC1(NC(=O)COc2cc(Cl)cc(Cl)c2)CCSC1 (stereo not drawn) | > 50.1 | > 50.1 |
| Cc1ccc(OCC(=O)NC2(C#N)CCSCC2)cc1C | 20.7 | 2.04 |
| O=c1oc(-c2ccc(F)cc2)nn1CC1CCCCO1 (stereo not drawn) | 0.609 | > 50.1 |
| COc1ccc(CN(C(=O)C2CCCS2)c2ccncc2)cc1 (stereo not drawn) | > 50.1 | > 50.1 |
| CN(CCc1nc(-c2cccc(Cl)c2)no1)CCn1cccn1 | 4.75 | 41.6 |
| CCc1nnsc1C(=O)NC(CC(C)C)C(=O)OC (stereo not drawn) | > 50.1 | > 50.1 |
| CCc1noc(CNc2cc3c(cc2Cl)OCCO3)n1 | 26.8 | 8.97 |
| COc1ccc(C)cc1CN1CCn2cccc2C1C (stereo not drawn) | 18.5 | 45.6 |
| CC(C)n1nccc1NC(=O)NCCc1nc2ccc(F)cc2n1C | > 50.1 | > 50.1 |
| CCc1nnc(NC(=O)N(CCOC)Cc2ccc(C)o2)s1 | > 50.1 | > 50.1 |
| CCN(C)c1ccc(CNC(=O)CCn2cc(C)cn2)cc1F | > 50.1 | > 50.1 |

| SMILES | IC50 [1] [µM] | IC50 [2] [µM] |
| --- | --- | --- |
| O=C(OCCNc1ncccn1)c1ccc(Cl)s1 | 29.7 | > 50.1 |
| O=C(OCCNc1ncccn1)c1ccc(Br)s1 | > 50.1 | 29.8 |
| CC1(NC(=O)CC2CCc3ccccc32)CCOCC1 (stereo not drawn) | > 50.1 | > 50.1 |
| COc1cccc2c1CCCCN2C(=O)c1oc(C)nc1C | > 50.1 | > 50.1 |
| FC(F)(F)Sc1ccccc1NCc1nc(C2CC2)no1 | 15.7 | > 50.1 |
| O=C(CCSc1ccc(F)cc1)N1CCN(c2cnccn2)CC1 | > 50.1 | > 50.1 |
| CC(C)N(C)S(=O)(=O)N(Cc1cccs1)Cc1cccs1 | 24.8 | > 50.1 |
| CC(Nc1ccc(Br)cc1)c1nc(C2CC2)no1 (stereo not drawn) | 2.01 | 0.994 |
| O=C(c1ccc(NCc2cccc(F)c2)cc1)N1CCCC1 | > 50.1 | > 50.1 |
| CC(Nc1ccc2c(c1)CCC2)c1nc(C2CC2)no1 (stereo not drawn) | 0.704 | 0.183 |
| Cc1noc(C(C)Nc2ccc3c(c2)CCC3)n1 (stereo not drawn) | 5.68 | 3.32 |
| CC(C)COc1cncc(N(C)C2CCN(c3ncccn3)CC2)n1 | 30 | 40.6 |
| COCCN(C)CC1CCCN1S(=O)(=O)c1cccc(F)c1F (stereo not drawn) | 15 | > 50.1 |
| Cc1cc(CN(C)Cc2csc(-c3ccc(C(C)C)cc3)n2)no1 | > 50.1 | 37.9 |
| CC(C)Oc1ccc(C(=O)NCc2ccnc(N3CCCC3)c2)cn1 | 36.9 | 45.1 |
| COC(=O)CSCc1nc(-c2ccc(Cl)cc2)no1 | > 50.1 | > 50.1 |
| CN1CCOC(CNCCOc2cccc(C#N)c2)C1 (stereo not drawn) | > 50.1 | > 50.1 |
| COc1cc(C)sc1C(=O)NCCNc1ccccc1 | 5.82 | 4.3 |
| COCCCSc1ccc(NCc2ccc(C)cn2)cc1 | > 50.1 | 49.1 |
| COCCCSc1ccc(NCc2scnc2C)cc1 | 25.4 | 38.7 |
| CCNc1cc2c(nn1)CCN(C(=O)C1COc3ccccc3C1)C2 (stereo not drawn) | 44.6 | 45 |
| COc1ccnc(N2CCCN(c3nc(C4CC4)ns3)CC2)n1 | > 50.1 | > 50.1 |
| CCOCC(=O)NC(C)Cc1ccccc1Br (stereo not drawn) | 0.928 | 0.742 |
| CCc1nc2n(n1)CC(NCc1nc(C)c(C)o1)CC2 (stereo not drawn) | > 50.1 | > 50.1 |
| CC(=O)c1ccc(C(=O)Nc2ccnc(N(C)C)n2)cc1 | > 50.1 | > 50.1 |

| SMILES | IC50 [1] [µM] | IC50 [2] [µM] |
| --- | --- | --- |
| CN(C)c1ccc(C(=O)N2CCCC2c2ccc(Cl)cc2)nn1 (stereo not drawn) | > 50.1 | > 50.1 |
| CN(C)c1ccc(C(=O)N2CCCC2c2cnn(C)c2)nn1 (stereo not drawn) | > 50.1 | > 50.1 |
| CCCc1cc(C(=O)NCCCC(=O)N2Cc3ccccc3C2)[nH]n1 | > 50.1 | > 50.1 |
| Cc1nc(-c2ccc(NCCc3ccc(O)cc3)nc2)[nH]c(=O)c1C | 42.1 | 32.1 |
| COC(=O)COc1ccc(-c2noc(C3CCCO3)n2)cc1 (stereo not drawn) | 31.9 | 18.6 |
| Cc1cccc(-c2ccc(C(=O)NCCN3CCOCC3)c(=O)[nH]2)c1 | > 50.1 | > 50.1 |
| COCCC(C)NC(=O)Nc1ccc(N2CCOC2=O)c(OC)c1 (stereo not drawn) | > 50.1 | > 50.1 |
| O=C(c1cc2c([nH]c1=O)CCC2)N1CCCC1c1ccccc1 (stereo not drawn) | > 50.1 | > 50.1 |
| CCN(C(=O)CN1CCCC1Cc1ccccc1)c1ccccc1 (stereo not drawn) | 44.2 | > 50.1 |
| CN(C(=O)CN1CCCC1Cc1ccccc1)c1ccccc1 (stereo not drawn) | 33 | > 50.1 |
| O=C(NCc1nnc2n1CCCCC2)N(Cc1ccncc1)C1CC1 | > 50.1 | > 50.1 |
| Cc1cc2n(n1)CC(CNC1CCN(C3CC3)CC1)CN2 (stereo not drawn) | > 50.1 | > 50.1 |
| Cc1nc(CN2CCC(CNC(=O)NCCC3CCC3)CC2)oc1C | 1.06 | 0.791 |
| Cc1cc(CN2CCN(C(=O)CCc3cccs3)CC2)on1 | 4.03 | 10.5 |
| COC(=O)COc1cc(NCc2c(C)noc2C)c(Cl)cc1C | 32.1 | 35 |
| CCc1nc(CN2CCCN(c3cnc4ccccc4n3)CC2)no1 | > 50.1 | 26.5 |
| CC(C)C1CN(C(=O)c2ccccc2)CCS1 (stereo not drawn) | 8.62 | 12.6 |
| COc1cc(C(=O)N(Cc2cccs2)C2CC2)cc2c1OCCO2 | > 50.1 | > 50.1 |
| CN(Cc1ccc(Cl)s1)C(=O)Cn1nc(-c2ccc(F)cc2)oc1=O | > 50.1 | > 50.1 |
| Cc1nccc(C(=O)N2CCCN(Cc3cnn(C(C)C)c3)CC2)n1 | > 50.1 | > 50.1 |
| CC(=O)N1CCCC1c1nnc2n1CCCCC2 (stereo not drawn) | > 50.1 | > 50.1 |
| c1cc(CNCc2ccc(-n3cncn3)nc2)cc(OC2CCCC2)c1 | 35 | 33.9 |
| CC(C)(C)c1n[nH]cc1CNCC1CCN(C2CC2)C1 (stereo not drawn) | 28.5 | 27.6 |
| CC(NCc1ccc(OCC(N)=O)cc1)c1ccc(Cl)cc1Cl (stereo not drawn) | 49 | 18.8 |
